Results published in article PMC3561128, “Preclinical evaluation of carbon-11 and fluorine-18 sulfonamide derivatives for in vivo radiolabeling of erythrocytes” (EJNMMI Research, 2013).
Like-named read-outs stand apart in the source and are kept apart here.

How the values were obtained:
[1] = target: hCA I (Homo sapiens, UniProt P00915); test: CA-catalyzed CO2 hydration, stopped-flow inhibition assay; format: biochemical; settings: human (cloned) isozyme; CO2 hydration reaction at 20°C; n = 3
Protocol: (§1) Phenol red (0.2 mM) was used as indicator, working at the absorbance maximum of 557 nm, with 10 mM Hepes as buffer (pH 7.5) and 0.1 M Na2SO4 (for maintaining constant ionic strength) at 25°C following the CA-catalyzed CO2 hydration reaction for a period of 10 to 100 s (the uncatalyzed reaction needs around 60 to 100 s under assay conditions, whereas the catalyzed reactions take around 6 to 10 s). The CO2 concentrations ranged from 1.7 to 17 mM for the determination of kinetic parameters. Each compound was tested in the concentration range between 0.01 nM to 100 μM. The uncatalyzed rates were determined in the same manner and subtracted from the total observed rates. Stock solutions of the compounds (0.1 mM) were prepared in distilled water with 10% to 20% (v/v) DMSO (which is non-inhibitory at these concentrations), and dilutions up to 0.01 nM were made with distilled water. Inhibitor and enzyme solutions were preincubated together for 15 min at room temperature prior to the assay, in order to allow the formation of enzyme-inhibitor complex. The inhibition constants were obtained by nonlinear least square methods using PRISM 3 (GraphPad Software, La Jolla, CA, USA), and they represent the mean from at least three different determinations.

[2] = target: hCA II (Homo sapiens, UniProt P00918); test: as above; format: biochemical; settings: human (cloned) isozyme; CO2 hydration reaction at 20°C; n = 3
Protocol: as §1

[3] = Log D (1-octanol/phosphate buffer pH 7.4), shake flask method; format: physicochemical
Protocol: Determination of the distribution coefficient (log D1-octanol/phosphate buffer pH 7.4), was carried out by a shake flask method. An aliquot (25 μL) of the tracer agents ^18F]-(3), ^11C]-(4), ^18F]-(5), or ^11C]-(6) (185 to 555 kBq/mL) was added to a polypropylene tube (5 mL; Sarstedt, Nümbrecht, Germany) containing 2 mL of 0.025 M sodium phosphate buffer pH 7.4 and 2 mL of 1-octanol. The tube was vortexed for 2 min at room temperature followed by centrifugation at 3,000 rpm for 10 min (Eppendorf centrifuge 5810, Eppendorf, Westbury, NY, USA). Aliquots of 50 μL of the 1-octanol phase and 500 μL of the phosphate buffer phase were pipetted into separate tared Eppendorf tubes with adequate care to avoid cross contamination between the two phases. The samples were weighed, and radioactivity was quantified using an automated gamma counter. The experiments were carried out sixfold.

[4] = test system: RBCs; parameters: method as in PMID 1647382, PMID 1647383; settings: rats, 24 h p.i.; cited from earlier work
[5] = test system: RBCs; parameters: method as in PMID 1647382, PMID 1647383; settings: human volunteers, 24 h p.i.; cited from earlier work

Chain of hCA I (P00915 whole entry): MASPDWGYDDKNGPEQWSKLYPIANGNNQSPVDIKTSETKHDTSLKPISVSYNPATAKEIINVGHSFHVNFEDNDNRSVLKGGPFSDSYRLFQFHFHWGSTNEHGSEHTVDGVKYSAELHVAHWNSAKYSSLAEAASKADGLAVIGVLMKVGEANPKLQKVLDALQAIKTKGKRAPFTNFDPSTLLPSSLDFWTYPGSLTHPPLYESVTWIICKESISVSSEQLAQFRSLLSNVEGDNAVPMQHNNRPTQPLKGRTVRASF

Compound | Ki [1] [µM] | Ki [2] [µM] | logD [3] | Activity associated with RBCs [4] | Activity associated with RBCs [5]
NS(=O)(=O)c1ccc(OCCF)cc1 [(5)] | 30.9 | 0.336 | 0.32 |  | 
NS(=O)(=O)c1ccc(I)cc1 [p-iodobenzenesulfonamide] |  |  |  | about 50 % of the injected dose | more than 88 % of the ID
